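Method: 48-hour compound exposure of cells in 96-well plates, five concentrations, linear interpolation of endpoints. The concentration for 50% growth inhibition is given as GI50. TGI is the concentration that stops growth completely.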
Tests used:
Assay in all cases: growth of human tumour cells (NCI), 48 h
K-562 leukemia = tested on: K-562 leukemia
CCRF-CEM leukemia = tested on: CCRF-CEM leukemia
UACC-257 melanoma = tested on: UACC-257 melanoma
HL-60(TB) leukemia = tested on: HL-60(TB) leukemia
HCC-2998 colon = tested on: HCC-2998 colon
HCT-116 colon = tested on: HCT-116 colon
RXF 393 renal = tested on: RXF 393 renal
UACC-62 melanoma = tested on: UACC-62 melanoma
HCT-15 colon = tested on: HCT-15 colon
MALME-3M melanoma = tested on: MALME-3M melanoma
UO-31 renal = tested on: UO-31 renal
OVCAR-4 ovarian = tested on: OVCAR-4 ovarian
NCI-H226 lung = tested on: NCI-H226 lung
TK-10 renal = tested on: TK-10 renal
SW-620 colon = tested on: SW-620 colon
SF-268 CNS = tested on: SF-268 CNS
COLO 205 colon = tested on: COLO 205 colon
RPMI-8226 leukemia = tested on: RPMI-8226 leukemia
MCF7 breast = tested on: MCF7 breast
NCI-H460 lung = tested on: NCI-H460 lung
SN12C renal = tested on: SN12C renal
NCI-H23 lung = tested on: NCI-H23 lung
SR leukemia = tested on: SR leukemia
OVCAR-5 ovarian = tested on: OVCAR-5 ovarian
SK-MEL-5 melanoma = tested on: SK-MEL-5 melanoma
HOP-62 NSCLC = tested on: HOP-62 NSCLC
HOP-92 NSCLC = tested on: HOP-92 NSCLC
HT29 colon = tested on: HT29 colon
MOLT-4 leukemia = tested on: MOLT-4 leukemia
PC-3 prostate = tested on: PC-3 prostate
SK-OV-3 ovarian = tested on: SK-OV-3 ovarian
SK-MEL-2 melanoma = tested on: SK-MEL-2 melanoma
U251 CNS = tested on: U251 CNS
EKVX NSCLC = tested on: EKVX NSCLC
IGROV1 ovarian = tested on: IGROV1 ovarian
NCI-H522 lung = tested on: NCI-H522 lung
OVCAR-3 ovarian = tested on: OVCAR-3 ovarian
MDA-MB-231 breast = tested on: MDA-MB-231 breast
SK-MEL-28 melanoma = tested on: SK-MEL-28 melanoma
MDA-MB-435 = tested on: MDA-MB-435
SF-295 CNS = tested on: SF-295 CNS
A498 renal = tested on: A498 renal
LOX IMVI melanoma = tested on: LOX IMVI melanoma
ACHN renal = tested on: ACHN renal
DU-145 prostate = tested on: DU-145 prostate
786-0 renal = tested on: 786-0 renal
SNB-19 CNS = tested on: SNB-19 CNS
BT-549 breast = tested on: BT-549 breast
KM12 colon = tested on: KM12 colon
CAKI-1 renal = tested on: CAKI-1 renal

**Q.** For `[N-]=[NH+]CC(=O)OC(COCc1ccccc1)COCc1ccccc1`, which TGI (K-562 leukemia) is on record?
**A.** > 100 µM

**Q.** And the TGI (CCRF-CEM leukemia)?
**A.** > 100 µM

**Q.** What about the TGI (UACC-257 melanoma) of the same compound?
**A.** > 100 µM

**Q.** And the TGI (HL-60(TB) leukemia)?
**A.** > 100 µM

**Q.** What about the TGI (HCC-2998 colon) of the same compound?
**A.** > 100 µM

**Q.** What about the TGI (HCT-116 colon) of the same compound?
**A.** > 100 µM

**Q.** What about the TGI (RXF 393 renal) of the same compound?
**A.** > 100 µM

**Q.** And the TGI (UACC-62 melanoma)?
**A.** > 100 µM

**Q.** What about the TGI (HCT-15 colon) of the same compound?
**A.** > 100 µM

**Q.** What about the TGI (MALME-3M melanoma) of the same compound?
**A.** > 100 µM

**Q.** What about the TGI (UO-31 renal) of the same compound?
**A.** 63 µM

**Q.** What about the TGI (OVCAR-4 ovarian) of the same compound?
**A.** > 100 µM

**Q.** And the TGI (NCI-H226 lung)?
**A.** > 100 µM

**Q.** What about the TGI (TK-10 renal) of the same compound?
**A.** > 100 µM

**Q.** What about the TGI (SW-620 colon) of the same compound?
**A.** > 100 µM

**Q.** What about the TGI (SF-268 CNS) of the same compound?
**A.** > 100 µM

**Q.** And the TGI (COLO 205 colon)?
**A.** > 100 µM

**Q.** What about the TGI (RPMI-8226 leukemia) of the same compound?
**A.** > 100 µM

**Q.** What about the TGI (MCF7 breast) of the same compound?
**A.** > 100 µM

**Q.** And the TGI (NCI-H460 lung)?
**A.** > 100 µM

**Q.** And the TGI (SN12C renal)?
**A.** > 100 µM

**Q.** What about the TGI (NCI-H23 lung) of the same compound?
**A.** > 100 µM

**Q.** And the TGI (SR leukemia)?
**A.** > 100 µM

**Q.** What about the TGI (OVCAR-5 ovarian) of the same compound?
**A.** > 100 µM

**Q.** And the TGI (SK-MEL-5 melanoma)?
**A.** > 100 µM

**Q.** What about the TGI (HOP-62 NSCLC) of the same compound?
**A.** > 100 µM

**Q.** And the TGI (HOP-92 NSCLC)?
**A.** > 100 µM

**Q.** What about the TGI (HT29 colon) of the same compound?
**A.** > 100 µM

**Q.** And the TGI (MOLT-4 leukemia)?
**A.** > 100 µM

**Q.** What about the TGI (PC-3 prostate) of the same compound?
**A.** > 100 µM

**Q.** What about the TGI (SK-OV-3 ovarian) of the same compound?
**A.** > 100 µM

**Q.** What about the TGI (SK-MEL-2 melanoma) of the same compound?
**A.** > 100 µM

**Q.** What about the TGI (U251 CNS) of the same compound?
**A.** > 100 µM

**Q.** What about the TGI (EKVX NSCLC) of the same compound?
**A.** > 100 µM

**Q.** What about the TGI (IGROV1 ovarian) of the same compound?
**A.** > 100 µM

**Q.** What about the TGI (NCI-H522 lung) of the same compound?
**A.** > 100 µM

**Q.** What about the TGI (OVCAR-3 ovarian) of the same compound?
**A.** > 100 µM

**Q.** What about the TGI (MDA-MB-231 breast) of the same compound?
**A.** > 100 µM

**Q.** What about the TGI (SK-MEL-28 melanoma) of the same compound?
**A.** > 100 µM

**Q.** And the TGI (MDA-MB-435)?
**A.** > 100 µM

**Q.** What about the TGI (SF-295 CNS) of the same compound?
**A.** > 100 µM

**Q.** And the TGI (A498 renal)?
**A.** > 100 µM

**Q.** And the TGI (LOX IMVI melanoma)?
**A.** > 100 µM

**Q.** And the TGI (ACHN renal)?
**A.** > 100 µM

**Q.** And the TGI (DU-145 prostate)?
**A.** > 100 µM

**Q.** What about the TGI (786-0 renal) of the same compound?
**A.** > 100 µM

**Q.** What about the TGI (SNB-19 CNS) of the same compound?
**A.** > 100 µM

**Q.** And the TGI (BT-549 breast)?
**A.** > 100 µM

**Q.** What about the TGI (KM12 colon) of the same compound?
**A.** 86.2 µM

**Q.** And the TGI (CAKI-1 renal)?
**A.** 86.6 µM

**Q.** What does the source list for `COc1ccc(-c2ccc(-c3ccc(C(=N)N)s3)s2)cc1Cl`?
**A.** GI50 (CCRF-CEM leukemia): 1.81 µM; TGI (CCRF-CEM leukemia): 4.72 µM; GI50 (SR leukemia): 0.299 µM; TGI (SR leukemia): 1.34 µM; GI50 (SK-MEL-5 melanoma): 1.88 µM; TGI (SK-MEL-5 melanoma): 3.52 µM; GI50 (SF-295 CNS): 1.8 µM; TGI (SF-295 CNS): 3.3 µM; GI50 (A498 renal): 1.29 µM; TGI (A498 renal): 2.6 µM

— PubChem BioAssay (NCI)
